Assay results published in patent US11780830B2, “Triazolone derivatives or salts thereof and pharmaceutical compositions comprising the same” (YUHAN CORPORATION, priority 2018, dated 2023).
Where a name gives a salt, the structure may show the parent alone.

Columns and labels:
Format in all cases: biochemical
[1] = target: T1, recombinant human MAO-B (monoamine oxidase-B) (Homo sapiens, UniProt P27338); assay: Activity on recombinant human MAO-B, method similar to the VAP-1 assay; conditions: substrate 1 mM benzylamine; read-out: Inhibitory Activity (IC50, nM) MAO-B
T1 construct: purchased Sigma-Aldrich
T1 sequence (P27338 1-520): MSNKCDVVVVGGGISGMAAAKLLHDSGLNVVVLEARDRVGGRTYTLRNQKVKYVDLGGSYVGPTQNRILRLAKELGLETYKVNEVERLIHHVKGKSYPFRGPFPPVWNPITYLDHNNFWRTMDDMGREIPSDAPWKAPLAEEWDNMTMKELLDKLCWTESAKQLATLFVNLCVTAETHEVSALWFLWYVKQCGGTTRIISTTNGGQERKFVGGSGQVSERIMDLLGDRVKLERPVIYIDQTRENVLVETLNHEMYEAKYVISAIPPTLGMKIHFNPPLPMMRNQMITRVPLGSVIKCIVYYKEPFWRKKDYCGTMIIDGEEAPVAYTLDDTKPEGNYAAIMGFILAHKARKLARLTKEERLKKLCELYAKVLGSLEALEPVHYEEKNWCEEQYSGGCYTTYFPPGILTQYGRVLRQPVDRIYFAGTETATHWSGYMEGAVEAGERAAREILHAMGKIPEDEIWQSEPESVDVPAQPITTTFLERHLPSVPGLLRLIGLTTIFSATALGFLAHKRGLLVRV
Outline: (§1)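 First, serially diluted compounds were incubated with recombinant enzyme in 50 mM sodium phosphate, pH 7.4, for 30 min at 37° C. Next, Amplex Red (200 uM), HRP (1 U/mL) and tyramine (0.5 mM, MAO-A) or benzylamine (1 mM, MAO-B) were added. Then fluorescence was monitored over 1-2 h and IC50 fitted.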

[2] = target: T2, recombinant human MAO-A (monoamine oxidase-A) (Homo sapiens, UniProt P21397); assay: Activity on recombinant human MAO-A, method similar to the VAP-1 assay; conditions: substrate 0.5 mM tyramine; read-out: Inhibitory Activity (IC50, nM) MAO-A
T2 construct: purchased Sigma-Aldrich
T2 sequence (P21397 1-527): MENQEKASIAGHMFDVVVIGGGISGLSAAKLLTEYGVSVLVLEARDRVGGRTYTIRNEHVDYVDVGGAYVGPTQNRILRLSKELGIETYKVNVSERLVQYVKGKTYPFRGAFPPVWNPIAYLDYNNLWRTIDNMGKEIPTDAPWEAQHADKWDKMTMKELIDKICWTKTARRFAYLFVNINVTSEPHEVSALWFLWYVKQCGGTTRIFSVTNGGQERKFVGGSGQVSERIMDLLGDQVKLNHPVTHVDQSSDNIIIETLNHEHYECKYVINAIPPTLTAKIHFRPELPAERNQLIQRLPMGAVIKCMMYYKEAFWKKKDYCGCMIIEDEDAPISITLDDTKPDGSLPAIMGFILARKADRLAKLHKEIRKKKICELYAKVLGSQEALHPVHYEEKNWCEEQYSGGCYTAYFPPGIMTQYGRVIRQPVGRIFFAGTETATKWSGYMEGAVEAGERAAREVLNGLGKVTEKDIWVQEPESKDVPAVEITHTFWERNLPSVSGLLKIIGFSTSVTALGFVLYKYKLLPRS
Outline: as §1

[3] = target: T3, recombinant human DAO (diamine oxidase) (Homo sapiens, UniProt P19801); assay: Activity on recombinant human DAO, method similar to the VAP-1 assay; conditions: substrate 1 mM putrescine; read-out: Inhibitory Activity (IC50, nM) DAO
T3 construct: purchased R&D systems
T3 sequence (P19801 20-751): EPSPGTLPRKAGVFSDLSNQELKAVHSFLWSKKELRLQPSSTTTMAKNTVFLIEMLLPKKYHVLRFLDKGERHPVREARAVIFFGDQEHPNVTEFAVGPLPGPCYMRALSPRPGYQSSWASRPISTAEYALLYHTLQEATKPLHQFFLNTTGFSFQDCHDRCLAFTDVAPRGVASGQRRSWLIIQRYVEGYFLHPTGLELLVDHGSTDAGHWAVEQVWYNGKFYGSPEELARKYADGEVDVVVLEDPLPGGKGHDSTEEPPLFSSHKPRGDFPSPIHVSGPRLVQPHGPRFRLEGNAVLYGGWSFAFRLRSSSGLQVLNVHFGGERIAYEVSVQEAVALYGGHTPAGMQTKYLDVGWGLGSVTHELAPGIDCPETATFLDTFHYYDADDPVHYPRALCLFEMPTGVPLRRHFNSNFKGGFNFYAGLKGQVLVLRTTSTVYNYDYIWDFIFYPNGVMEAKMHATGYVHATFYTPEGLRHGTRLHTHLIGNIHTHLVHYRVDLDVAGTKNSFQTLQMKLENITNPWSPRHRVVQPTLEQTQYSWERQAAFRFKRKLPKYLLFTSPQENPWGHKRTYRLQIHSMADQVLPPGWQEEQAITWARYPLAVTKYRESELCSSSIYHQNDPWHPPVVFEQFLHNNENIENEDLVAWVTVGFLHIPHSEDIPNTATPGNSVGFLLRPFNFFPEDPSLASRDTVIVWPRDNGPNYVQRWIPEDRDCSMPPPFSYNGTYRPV
Outline: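 Inhibition of recombinant human diamine oxidase (DAO, R&D systems) was assessed by the same approach as the VAP-1 assay, using 1 mM putrescine as substrate. Hydrogen peroxide formed was detected through an HRP-coupled Amplex Red reaction yielding fluorescent resorufin, read at 544 nm excitation and 590 nm emission. IC50 values came from four-parameter logistic fitting in GraphPad Prism.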

recombinant human VAP-1 = target: T4, recombinant human VAP-1 (Homo sapiens, UniProt Q16853); assay: Activity on recombinant human VAP-1, HRP-coupled Amplex Red hydrogen peroxide assay; conditions: substrate 1 mM benzylamine; compound incubated with enzyme at 37° C. for 30 minutes; pH 7.4; read-out: Inhibitory Activity (IC50, nM) human VAP-1
T4 construct: purchased R&D systems
T4 sequence (Q16853 1-763): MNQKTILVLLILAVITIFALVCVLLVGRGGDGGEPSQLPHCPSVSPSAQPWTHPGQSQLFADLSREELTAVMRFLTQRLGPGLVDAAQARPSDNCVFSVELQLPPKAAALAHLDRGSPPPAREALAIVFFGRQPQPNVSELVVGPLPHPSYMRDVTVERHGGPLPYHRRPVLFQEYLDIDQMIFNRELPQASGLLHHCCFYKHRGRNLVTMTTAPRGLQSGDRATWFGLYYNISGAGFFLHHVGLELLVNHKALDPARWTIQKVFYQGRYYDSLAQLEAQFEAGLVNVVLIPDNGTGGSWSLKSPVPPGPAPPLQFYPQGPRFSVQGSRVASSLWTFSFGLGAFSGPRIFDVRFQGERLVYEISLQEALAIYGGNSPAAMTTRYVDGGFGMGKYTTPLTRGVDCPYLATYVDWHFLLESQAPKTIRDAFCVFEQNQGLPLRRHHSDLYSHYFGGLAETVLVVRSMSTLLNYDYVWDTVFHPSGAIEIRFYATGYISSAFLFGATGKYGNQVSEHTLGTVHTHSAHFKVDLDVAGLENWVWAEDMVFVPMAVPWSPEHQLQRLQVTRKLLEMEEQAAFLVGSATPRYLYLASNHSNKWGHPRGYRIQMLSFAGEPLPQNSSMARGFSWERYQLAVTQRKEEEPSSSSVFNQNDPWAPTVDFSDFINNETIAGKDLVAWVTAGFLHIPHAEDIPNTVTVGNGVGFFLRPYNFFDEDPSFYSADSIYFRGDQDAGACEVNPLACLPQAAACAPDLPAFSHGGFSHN
Outline: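 H2O2 generation from 1 mM benzylamine was coupled via 1 U/mL HRP to 200 uM Amplex Red; inhibitors, serially diluted 1:3 over 8 points with under 1% final DMSO, had been preincubated 30 min at 37 °C. IC50 from percentage drop in rate.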

SMILES | IC50 [1] [nM] | IC50 [2] [nM] | IC50 [3] [nM] | IC50 (recombinant human VAP-1) [nM]
CS(=O)(=O)c1ccc(-c2ccc(CCn3cnn(C/C(=C/F)CN)c3=O)s2)cc1 [Example 216, 2-[(2E)-2-(aminomethyl)-3-fluoroprop-2-en-1-yl]-4-(2-{5-[4-(methylsulfonyl)phenyl]thiophen-2-yl}ethyl)-2,4-dihydro-3H-1,2,4-triazol-3-one] | 37000 | > 100000 | 68 | 0.5
CC1(C)Oc2cc(-c3ccc(Cn4cnn(C/C(=C/F)CN)c4=O)s3)ccc2NC1=O [Example 87, 7-[5-[[1-[(E)-2-(aminomethyl)-3-fluoro-allyl]-5-oxo-1,2,4-triazol-4-yl]methyl]-2-thienyl]-2,2-dimethyl-4H-1,4-benzoxazin-3-one] | 2700 | > 100000 | 760 | 0.4
CCOc1ncc(-c2ccc(Cn3cnn(C/C(=C/F)CN)c3=O)s2)cn1 [Example 179, 2-[(2E)-2-(aminomethyl)-3-fluoroprop-2-en-1-yl]-4-{[5-(2-ethoxypyrimidin-5-yl)thiophen-2-yl]methyl}-2,4-dihydro-3H-1,2,4-triazol-3-one] | 8400 | > 100000 | 89 | 1.2
NC/C(=C\F)Cn1ncn(Cc2ccc(-c3cc(F)c4c(c3)CNC4=O)s2)c1=O [Example 70, hydrochloride] | 2800 | > 100000 | 289 | 0.1
NC/C(=C\F)Cn1ncn(Cc2ccc(C#Cc3cnc4c(c3)NC(=O)CO4)s2)c1=O [Example 138, 7-[2-[5-[[1-[(E)-2-(aminomethyl)-3-fluoro-allyl]-5-oxo-1,2,4-triazol-4-yl]methyl]-2-thienyl]ethynyl]-1H-pyrido[2,3-b][1,4]oxazin-2-one hydrochloride] | 2300 | > 100000 | 470 | 0.2
CN1C(=O)Cc2cc(-c3ccc(Cn4cnn(C/C(=C/F)CN)c4=O)s3)cnc21 [Example 73, 5-[5-(1-[(2E)-2-(aminomethyl)-3-fluoroprop-2-en-1-yl]-5-oxo-1,5-dihydro-4H-1,2,4-triazol-4-ylmethyl)thiophen-2-yl]-1-methyl-1,3-dihydro-2H-pyrrolo[2,3-b]pyridin-2-one hydrochloride] | 6100 | > 100000 | 93 | 0.2
NC/C(=C\F)Cn1ncn(CCc2ccc(-c3ccc(N4CCNCC4)cc3)s2)c1=O [Example 221, 2-[(2E)-2-(aminomethyl)-3-fluoroprop-2-en-1-yl]-4-(2-{5-[4-(piperazin-1-yl)phenyl]thiophen-2-yl}ethyl)-2,4-dihydro-3H-1,2,4-triazol-3-one] | > 100000 | > 100000 | 1420 | 1.8
NC/C(=C\F)Cn1ncn(Cc2ccc(-c3ccc4c(c3)CC(=O)N4)s2)c1=O [Example 69, 5-[5-(1-[(2E)-2-(aminomethyl)-3-fluoroprop-2-en-1-yl]-5-oxo-1,5-dihydro-4H-1,2,4-triazol-4-ylmethyl)thiophen-2-yl]-1,3-dihydro-2H-indol-2-one hydrochloride] | 1800 | 70000 | 1100 | 0.1

Stronger by IC50 [1], values ahead:

IC50 [1] [nM] | IC50 [2] [nM] | IC50 [3] [nM] | IC50 (recombinant human VAP-1) [nM] | SMILES
530 | > 100000 | 200 | 0.4 | CC1(C)Oc2ccc(-c3ccc(Cn4cnn(C/C(=C/F)CN)c4=O)s3)cc2NC1=O [Example 98, 6-[5-[[1-[(E)-2-(aminomethyl)-3-fluoro-allyl]-5-oxo-1,2,4-triazol-4-yl]methyl]-2-thienyl]-2,2-dimethyl-4H-1,4-benzoxazin-3-one]
260 | > 100000 | 320 | 0.8 | COC(=O)c1cc(F)cc(-c2ccc(Cn3cnn(C/C(=C/F)CN)c3=O)s2)c1 [Example 13, methyl 3-[5-(1-[(2E)-2-(aminomethyl)-3-fluoroprop-2-en-1-yl]-5-oxo-1,5-dihydro-4H-1,2,4-triazol-4-ylmethyl)thiophen-2-yl]-5-fluorobenzoate hydrochloride]
770 | > 100000 | 360 | 0.6 | NC/C(=C\F)Cn1ncn(Cc2ccc(C#Cc3ccc(N4CCOCC4)nc3)s2)c1=O [Example 129, 2-[(E)-2-(aminomethyl)-3-fluoro-allyl]-4-[[5-[2-(6-morpholino-3-pyridyl)ethynyl]-2-thienyl]methyl]-1,2,4-triazol-3-one hydrochloride]
< 100 | > 10000 | 3000 | 1.8 | NC/C(=C/F)Cn1ncn(Cc2ccc(-c3ccc4c(c3)OCO4)s2)c1=O [Example 60, 2-[(2Z)-2-(aminomethyl)-3-fluoroprop-2-en-1-yl]-4-[5-(1,3-benzodioxol-5-yl)thiophen-2-yl]methyl-2,4-dihydro-3H-1,2,4-triazol-3-one hydrochloride]
